Test results published in US20030143729A1 (Synaptic Pharmaceutical Corporation, priority 1992, published 2003).
Like-named read-outs stand apart in the source and are kept apart here.

What was measured:
[1] = biological target: T1, GAT-3 (Rattus norvegicus, UniProt P31647); assay: [3H]GABA uptake by COS cells transfected with GAT-3 (rB8b or K438-rB8b); assay type: cell-based
T1 sequence (P31647 1-627): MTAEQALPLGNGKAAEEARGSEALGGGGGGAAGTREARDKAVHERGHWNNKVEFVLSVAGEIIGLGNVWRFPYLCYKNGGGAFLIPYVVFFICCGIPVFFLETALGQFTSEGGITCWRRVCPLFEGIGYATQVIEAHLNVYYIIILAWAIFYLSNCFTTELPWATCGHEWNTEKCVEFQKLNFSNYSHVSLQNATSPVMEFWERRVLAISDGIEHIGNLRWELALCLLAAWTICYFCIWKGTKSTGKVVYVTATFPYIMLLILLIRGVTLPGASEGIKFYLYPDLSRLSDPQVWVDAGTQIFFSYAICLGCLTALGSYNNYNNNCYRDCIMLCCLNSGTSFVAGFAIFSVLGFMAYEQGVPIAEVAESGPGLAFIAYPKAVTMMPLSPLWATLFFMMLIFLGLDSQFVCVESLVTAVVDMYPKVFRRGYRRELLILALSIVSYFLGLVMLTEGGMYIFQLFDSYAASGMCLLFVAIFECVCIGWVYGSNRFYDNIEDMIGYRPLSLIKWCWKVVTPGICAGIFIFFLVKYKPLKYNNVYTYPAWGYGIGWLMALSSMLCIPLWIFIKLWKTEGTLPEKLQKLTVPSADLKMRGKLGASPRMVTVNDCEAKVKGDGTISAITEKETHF

[2] = biological target: T2, rGAT-2 (Rattus norvegicus, UniProt P31646); assay: [3H]GABA uptake, full competition curves at cloned rGAT-2 (transient transfection, COS cells); assay type: cell-based
T2 construct: randomly primed GAT-2 full-length or GAT-3 truncated or full-length cDNA clones; expressed in transfected cells; host or cells: COS cells, transient, plasmid pEVJB-rB14b
T2 sequence (P31646 1-602): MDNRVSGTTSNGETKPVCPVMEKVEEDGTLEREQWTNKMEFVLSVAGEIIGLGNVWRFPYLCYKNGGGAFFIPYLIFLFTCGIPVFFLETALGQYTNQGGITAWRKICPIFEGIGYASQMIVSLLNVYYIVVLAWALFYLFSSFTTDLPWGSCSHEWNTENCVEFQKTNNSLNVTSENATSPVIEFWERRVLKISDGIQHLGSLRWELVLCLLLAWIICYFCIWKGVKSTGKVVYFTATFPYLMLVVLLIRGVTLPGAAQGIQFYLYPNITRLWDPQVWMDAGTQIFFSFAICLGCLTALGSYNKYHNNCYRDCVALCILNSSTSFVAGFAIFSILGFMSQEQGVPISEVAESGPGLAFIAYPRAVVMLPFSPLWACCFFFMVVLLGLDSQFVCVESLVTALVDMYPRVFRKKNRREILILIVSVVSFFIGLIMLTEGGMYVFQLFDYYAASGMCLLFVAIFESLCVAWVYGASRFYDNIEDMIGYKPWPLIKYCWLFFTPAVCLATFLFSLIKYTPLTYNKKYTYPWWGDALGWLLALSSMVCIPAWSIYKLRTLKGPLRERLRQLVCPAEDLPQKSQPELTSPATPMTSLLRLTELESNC

[3] = biological target: T3, rat GAT-3 (Rattus norvegicus, UniProt P31647)
T3 sequence (P31647 54-627 limits assumed): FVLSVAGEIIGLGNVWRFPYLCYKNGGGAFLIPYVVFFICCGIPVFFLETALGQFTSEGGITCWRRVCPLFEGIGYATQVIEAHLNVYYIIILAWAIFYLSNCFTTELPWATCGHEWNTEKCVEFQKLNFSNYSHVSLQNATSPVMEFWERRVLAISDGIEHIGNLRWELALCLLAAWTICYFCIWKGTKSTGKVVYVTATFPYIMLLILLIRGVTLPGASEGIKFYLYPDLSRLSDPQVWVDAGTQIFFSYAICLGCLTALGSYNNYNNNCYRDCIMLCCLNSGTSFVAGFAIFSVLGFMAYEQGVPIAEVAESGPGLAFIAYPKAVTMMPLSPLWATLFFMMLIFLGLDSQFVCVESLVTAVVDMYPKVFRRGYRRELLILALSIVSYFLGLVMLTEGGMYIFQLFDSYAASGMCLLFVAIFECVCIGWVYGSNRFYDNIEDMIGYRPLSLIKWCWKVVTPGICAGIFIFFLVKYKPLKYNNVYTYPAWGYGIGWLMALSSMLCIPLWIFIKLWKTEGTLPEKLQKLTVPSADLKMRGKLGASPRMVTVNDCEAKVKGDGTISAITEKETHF
Description: (§1) Cells grown in 24-well plates were washed 3× with HEPES-buffered saline (HBS, in mM: NaCl, 150; HEPES, 20; CaCl2, 1; glucose, 10; KCl, 5; MgCl2, 1; pH 7.4) and allowed to equilibrate on a 37° C. slide warmer. After 10 minutes the medium was removed and unlabeled drugs in HBS were added (450 μl/well). […] Plates were incubated at 37° C. for 10 minutes, then washed rapidly 3× with ice-cold HBS, using a 24-position plate washer (Brandel, Gaithersburg, Mass.; model PW-12). Cells were solubilized with 0.05% sodium deoxycholate/0.1N NaOH (0.25 ml/well), an aliquot neutralized with 1N HCl, and radioactivity was determined by scintillation counting. Protein was quantified in an aliquot of the solubilized cells using a BIO-RAD protein assay kit, according to the manufacturer's directions.
(§2) Lipophilic inhibitors were dissolved in DMSO.
(§3) Data Analysis: Competition curves were conducted in duplicate, using 10 concentrations of unlabeled drug.
(§4) COS cells grown in 75 cm^2 or 150 cm^2 flasks in DMEM with 10% bovine calf serum, 100 U/ml penicillin G, and 100 μg/ml streptomycin sulfate (37° C., 5% CO2) were transfected using DEAE-dextran. On the day following transfection the cells were split into 24-well assay plates coated with poly-D-lysine (10 μg/ml), and transport was measured 24 hours later.
(§5) After 10 minutes the medium was removed and unlabeled drugs in HBS were added (450 μl/well). […] Plates were incubated at 37° C. for 10 minutes, then washed rapidly 3× with ice-cold HBS, using a 24-position plate washer (Brandel, Gaithersburg, Mass.; model PW-12). Cells were solubilized with 0.05% sodium deoxycholate/0.1N NaOH (0.25 ml/well), an aliquot neutralized with 1N HCl, and radioactivity was determined by scintillation counting. Protein was quantified in an aliquot of the solubilized cells using a BIO-RAD protein assay kit, according to the manufacturer's directions.

[4] = tested on: Type 1 astrocytes; assay: [3H]GABA uptake in Type 1 astrocyte cultures; assay type: cell-based, rat; conditions: read-out: IC50 for inhibition of [3H]GABA uptake, Type 1 astrocytes
Description: Preparation of primary rat astrocyte cell cultures: Primary glial cultures were established from newborn Sprague-Dawley rat brains. Brains minus cerebella were removed aseptically and carefully dissected free of meninges. […] The cells were dissociated by trituration through a serological pipette. Separate procedures were then used for the preparation of Type-1 and O-2A/Type-2 astrocyte cultures, as will now be described.
For the preparation of Type-1 astrocyte cultures, cells were plated onto uncoated 75 cm^2 flasks at low density (1 brain per 10 flasks, or approximately 8×10^4 cells/cm^2). The medium was changed the following day and twice a week thereafter. […] Cultures highly enriched in O-2A/Type-2 cells were prepared from mixed astrocyte cultures which consisted of a monolayer of Type 1 cells upon which rested large numbers of O-2A/Type 2 cells. […] The same brain cell suspensions as described above were plated at high density (1 brain per 75 cm^2 flask, or approximately 8×10^5 cells/cm^2) into flasks coated with poly-D-lysine (10 μg/ml). After 24 hours the medium was replaced and the cultures were subsequently fed twice a week. […] Complete medium was added to the flasks and the cell suspension was removed gently, care being taken to not disrupt the underlying Type 1 astrocyte monolayer. The cells were pelleted at low speed, resuspended in complete medium, and added to 24-well plates coated with poly-D-lysine (10 μg/ml). […] No attempt was made to distinguish or separate O-2A precursors from the more differentiated Type 2 astrocytes.

[5] = tested on: rat brain aggregates; assay: [3H]GABA uptake by brain aggregates; assay type: cell-based
Description: Briefly, adult rat brains were removed from the skull and the cerebral cortex was dissected and placed in ice-cold HBS. […] The preparation was washed once by centrifugation, then resuspended in HBS.
The filters were washed with ice-cold HBS, punched into vials, and radioactivity determined by scintillation counting. Protein was determined in an aliquot of the aggregate preparation using the BIO-RAD protein assay kit.

[6] = biological target: rat GAT-1 (Rattus norvegicus, UniProt P23978); assay: cell-based
Description: as §1, §2, §3, §4, §5

[7] = COS, read-out: % Inhibition of [3H]GABA uptake, GAT-3
[8] = Rattus norvegicus, Astrocyte, 3 h
[9] = Rattus norvegicus, read-out: IC50 for inhibition of [3H]GABA uptake, rat brain aggregates, control
[10] = read-out: IC50 for inhibition of [3H]GABA uptake, rGAT-2 (Table 8), full competition curves, 50 nM [3H]GABA
[11] = read-out: IC50 for inhibition of [3H]GABA uptake, rat brain aggregates, control, absence of NNC-711
[12] = read-out: IC50 for inhibition of [3H]GABA uptake, rat brain aggregates, with NNC-711, in the presence of 10 μM NNC-711
[13] = read-out: IC50 for inhibition of [3H]GABA uptake, rGAT-3 (Table 8), full competition curves, 50 nM [3H]GABA

Compound | IC50 [2] [µM] | IC50 [3] [µM] | IC50 [4, 8] [µM] | IC50 [5, 9] [µM] | IC50 [6] [µM] | inhibition at 100 µM [1, 7] [%] | IC50 [2, 10] [µM] | IC50 [4] [µM] | IC50 [5, 12] [µM] | IC50 [3, 13] [µM] | also measured
NCCCC(=O)O [GABA, gamma-aminobutyric acid] | 17 ± 6 | 33 ± 10 |  |  |  |  |  |  |  |  | VMAX of GABA transport, COS/rB8b and/or COS/K438-rB8b (GAT-3) ([1]; various concentrations of [3H]GABA, 30 seconds): 3.0±0.9 nmoles/mg protein
O=C(O)C1=CCCNC1 [guvacine] | 228 ± 38 | 378 ± 175 | 23 ± 10 | 10 ± 2 | 39 ± 6 |  |  |  |  |  | inhibition at 10 µM [1, 7]: 8 ± 5%
NCCS(=O)(=O)O [taurine, 2-aminoethanesulfonic acid] | 1270 | 2860 |  | 67000 | 32300 |  |  |  |  |  | 
N[C@@H]1CCC[C@H](C(=O)O)C1 (relative stereo) [ACHC, cis-3-aminocyclohexanecarboxylic acid] | 25900 | 55100 | 400 ± 200 | 31 | 132 ± 44 | 0 |  |  |  |  | 
NCCS(=O)O [hypotaurine] | 52 ± 6 | 73 ± 7 | 69 ± 30 | 692 ± 100 | 1010 |  |  |  |  |  | 
NCC[C@H](N)C(=O)O [L-DABA, L-(2,4)diaminobutyric acid] | 300 ± 51 | 710 ± 237 | 3460 | 22 ± 3 | 128 ± 12 | 4 ± 1 |  |  |  |  | 
hydroxynipecotic acid [OH-nipecotic] |  |  |  |  |  |  | 567 ± 50 | 1610 | 69 ± 10 | 467 ± 53 | % Inhibition of [3H]GABA uptake, GAT-3 ([1]; inhibitor 10 μM, 50 nM [3H]GABA, 10 minutes, 37° C.): 5 ± 2 (3) %; IC50 [5, 11]: 10 ± 1 µM
N=C(N)NCCS(=O)(=O)O [GES, guanidinoethanesulfonic acid] |  |  |  |  |  |  | 696 ± 110 | 310 ± 60 | 410 ± 100 | 915 ± 49 | IC50 [5, 11]: 1340 µM
O=C(O)C1=CCCN(CCON=C(c2ccccc2)c2ccccc2)C1 [NNC-711] |  |  |  |  |  |  | 729 ± 319 | 2 ± 0.3 | 323 ± 70 | 349 ± 151 | [3H]GABA uptake that persists, rat brain aggregates ([5]; NNC-711 at 10 μM): 15±2%; IC50 ([5]; read-out: IC50 for GABA uptake, rat brain aggregates): 0.09 µM; IC50 ([3]; read-out: IC50 for inhibition of [3H]GABA uptake, rat GAT-3, transient transfection, 50 nM [3H]GABA): 349 ± 151 µM
NCCC(=O)O [β-alanine] | 66 ± 9 | 110 ± 40 | 100 ± 30 |  | 2920 ± 197 | 70 ± 1 |  |  |  |  | IC50 ([5]; Rattus norvegicus, read-out: IC50 for GABA transport, brain aggregates): 3000 µM; IC50 ([5]; Rattus norvegicus, read-out: IC50 for inhibition of [3H]GABA uptake, rat brain aggregates, control, absence of NNC-711): 2930 µM; IC50 ([5]; Rattus norvegicus, read-out: IC50 for inhibition of [3H]GABA uptake, rat brain aggregates, with NNC-711, in the presence of 10 μM NNC-711): 33 µM
